Key:
[1] = system: Klotho gene expression; test: Luciferase reporter assay to evaluate Klotho gene expression changes; format: cell-based; conditions: overnight incubation, luciferase luminescence
Protocol: Table 2. Luciferase Reporter Assay to Evaluate Klotho Gene Expression Changes
HEK293 cells/pKlotho_Luc in suspension (20 μl/well, density 0.25×10^6 cells/ml) were dispensed into assay-ready 384-well tissue culture treated plates (plates (BD BioCoat Poly-D-Lys coated, Cat.354661) preloaded with 1000× stock of test compounds in DMSO (20 nL/well, 10 concentration points, 3× dilutions from 20 uM to 0.001 uM). Growth medium: DMEM, 1% FBS, Pen/Strep, 600 ug/ml G418. Negative control: DMSO. Positive control: 2 uM Compound H from King, et. al. Biochem. J. (2012) 441, 453-461. Cells were incubated in CO2 incubator overnight. At the end of the incubation time, 20 ul/well of the luciferase assay solution (Steady-Luc Firefly HTS Assay Biotium, Cat 30028) were added to the plate and mixed on a VibraTranslator (Union Scientific). Plates were incubated for 5 min at 25° C. Steady glow luminescence signal was read using a BMG Labtech PHERAstar FSX reader.

[2] = system: aged male Wistar rats; test: Aged rat efficacy model, blood pressure by tail-cuff method; format: in vivo
Protocol: The aim of the study was to assess the efficacy of test compound in improving physiologic parameters in aged rats such as blood pressure values. The experiment included daily repeated administrations of the test compound for 14 consecutive days and follow up observations within a […] post-dosing period. Body weight (BWt) were monitored daily during the dosing period and twice a week during the post-dosing period. Blood pressure (BP) was measured on 0, 7th, 14th, 21s t and 28th day of the study. Study design, animal selection, handling and treatment were all in accordance with the CROs efficacy study protocols and Standard Operation Procedure, and the Animal Care Guidelines.
Fifteen aged male Wistar rats (22.5 months old; initial body weights ranged from 474.8 g to 672.4 g with an average body weight across the groups of 540.8 g) were randomized into two groups by body weight and systolic blood pressure: 11 animals distributed to compound 49-treated group and 4 animals—to vehicle-treated group. […]
Blood pressure was measured by the Tail-Cuff Method using the Coda Non-invasive Blood-Pressure System. Individual body weights and relative changes in body weight (compared to the appropriate weight on Day 0) were recorded.

[3] = Homo sapiens, HEK293, HEK293 cells/pKlotho_Luc

| SMILES | Activation, % ([1]; HEK293 cells/pKlotho_Luc) | EC50 [1, 3] | EC50 ([1]; HEK293 cells/pKlotho_Luc) | Systolic blood pressure within the treated group during the study ([2]; 50 mg/kg PO daily for 14 days, 28-day study) | Systolic blood pressure, treated group vs vehicle-treated group ([2]; 50 mg/kg PO daily, Day 14) |
| --- | --- | --- | --- | --- | --- |
| CC1(C)CCC(CNc2ncnc3c2ncn3C2CC2)CC1 [Compound 45] | 59% | 13100 nM |  |  |  |
| C1=C(CCNc2ncnc3c2ncn3C2CC2)CCCCC1 [Compound 38] | 105% | 340 nM |  |  |  |
| C1=CC[C@@H](CNc2ncnc3c2ncn3C2CC2)CC1 [Compound 48] | 86% | 160 nM |  |  |  |
| CC(C)CCNc1ncnc2c1ncn2C1CC1 [Compound 32] | 77% | 730 nM |  |  |  |
| Nc1c(NCCC2=CCCCC2)ncnc1-n1cccn1 [Compound 11] | 125% | 210 nM |  |  |  |
| Cc1csc2ncnc(NCCC3=CCCCCC3)c12 [Compound 12] | 98% | 210 nM |  |  |  |
| c1nc(NCCC2CCCCC2)c2ncn(C3CC3)c2n1 [Compound 31] | 109% | 1100 nM |  |  |  |
| C1=C(CCNc2ncnc3ccsc23)CCCCC1 [Compound 24] | 122% | 880 nM |  |  |  |
| C1=C(CCNc2ncnc3c2ncn3C2CC2)CCC1 [Compound 42] | 79% | 620 nM |  |  |  |
| CC(C)(CNc1ncnc2c1ncn2C1CC1)C1=CCCCC1 [Compound 44] | 58% | 23800 nM |  |  |  |
| Nc1c(NCCC2=CCCCCC2)ncnc1-n1cccn1 [Compound 10] | 98% | 200 nM |  |  |  |
| Clc1ccc(CNc2ncnc3c2ncn3C2CC2)cc1Cl [Compound 43] |  | > 30000 nM |  |  |  |
| CCC1(CC)CCCN(c2ncnc3c2ncn3C2CC2)CC1 [Compound 28] | 101% | 1000 nM |  |  |  |
| N#CCCn1ncc2c(NCCC3=CCCCCC3)ncnc21 [Compound 14] | 122% | 260 nM |  |  |  |
| C1=C(CCNc2ncnc3sccc23)CCCCC1 [Compound 9] | 81% | 180 nM |  |  |  |
| C1=C(CCNc2ncnc3c2ncn3C2CC2)CCCC1 [Compound 37] | 103% | 70 nM |  |  |  |
| Cc1cc2c(NCCC3=CCCCCC3)ncnc2s1 [Compound 18] | 48% | 450 nM |  |  |  |
| c1nc(NCC2CCC2)c2ncn(C3CC3)c2n1 [Compound 36] | 68% | 830 nM |  |  |  |
| CN(CCC1CCCCC1)c1ncnc2c1ncn2C1CC1 [Compound 17] | 114% | 380 nM |  |  |  |
| N#CCCn1ncc2c(NCCC3=CCCCC3)ncnc21 [Compound 20] | 120% | 600 nM |  |  |  |
| C1=C(CCNc2ncnc3c2cnn3-c2ccccc2)CCCCC1 [Compound 22] | 96% | 770 nM |  |  |  |
| C1=CCC(CCNc2ncnc3c2ncn3C2CC2)CC1 (stereo not drawn) [Compound 19] | 152% | 500 nM |  |  |  |
| CC(C)CNc1ncnc2c1ncn2C1CC1 [Compound 35] | 40% | 1500 nM |  |  |  |
| Fc1cccc2ncnc(NCCC3=CCCCC3)c12 [Compound 13] | 86% | 250 nM |  |  |  |

| SMILES | Activation, % ([1]; HEK293 cells/pKlotho_Luc) | EC50 [1, 3] | EC50 ([1]; HEK293 cells/pKlotho_Luc) | Systolic blood pressure within the treated group during the study ([2]; 50 mg/kg PO daily for 14 days, 28-day study) | Systolic blood pressure, treated group vs vehicle-treated group ([2]; 50 mg/kg PO daily, Day 14) |
| --- | --- | --- | --- | --- | --- |
| Clc1cccc(CNc2ncnc3c2ncn3C2CC2)c1 [Compound 34] | 102% | 2000 nM |  |  |  |
| c1nc(NCC2CCCCC2)c2ncn(C3CC3)c2n1 [Compound 33] | 89% | 380 nM |  |  |  |
| Cc1csc2ncnc(NCCC3=CCCCC3)c12 [Compound 8] | 145% | 160 nM |  |  |  |
| C1=C(CCNc2ncnc3scnc23)CCCCC1 [Compound 27] | 101% | 920 nM |  |  |  |
| c1nc(NCCC2CCCC2)c2ncn(C3CC3)c2n1 [Compound 30] | 87% | 1200 nM |  |  |  |
| CCn1ncc2c(NCCC3=CCCCC3)ncnc21 [Compound 16] | 151% | 370 nM |  |  |  |
| Cc1cc2c(NCCC3=CCCCC3)ncnc2s1 [Compound 21] | 133% | 680 nM |  |  |  |
| c1ccc([C@@H]2C[C@H]2Nc2ncnc3c2ncn3C2CC2)cc1 [Compound 41] |  | > 30000 nM |  |  |  |
| CC1(CNc2ncnc3c2ncn3C2CC2)CCCC1 [Compound 40] | 89% | 2900 nM |  |  |  |
| C1=C(CCNc2cc(N3CCCCC3)ncn2)CCCC1 [Compound 6] | 98% | 140 nM |  |  |  |
| C1=C(CCNc2ncnc3c2cnn3-c2ccccc2)CCCC1 [Compound 15] | 203% | 270 nM |  |  |  |
| C1=CC[C@@H](CNc2ncnc3c2ncn3C2CC2)CC1 [Compound 49] | 90% |  | 100 nM | considerable decrease | Significant difference |
| C1=C(CCNc2ncnc3[nH]ccc23)CCCCC1 [Compound 2, N-[2-(cyclohept-1-en-1-yl)ethyl]-7H-pyrrolo[2,3-d]pyrimidin-4-amine] | 94% | 70 nM |  |  |  |
| Fc1ccccc1-n1ncc2c(NCCC3=CCCCCC3)ncnc21 [Compound 5] | 61% | 120 nM |  |  |  |
| C1=C(CCNc2ncnc3scnc23)CCCC1 [Compound 29] | 103% | 1100 nM |  |  |  |
| c1nc(NCC23CCC(CC2)CC3)c2ncn(C3CC3)c2n1 [Compound 46] | 86% | 1700 nM |  |  |  |
| FC1(CNc2ncnc3c2ncn3C2CC2)CCCCC1 [Compound 47] | 86% | 900 nM |  |  |  |
| CCn1ncc2c(NCCC3CC=CCC3)ncnc21 (stereo not drawn) [Compound 26] | 121% | 920 nM |  |  |  |
| C1=C(CCNc2ncnc3sccc23)CCCC1 [Compound 23] | 133% | 850 nM |  |  |  |
| C1=CCC(CNc2ncnc3c2ncn3C2CC2)CC1 (stereo not drawn) [Compound 1, N-[(cyclohex-3-en-1-yl)methyl]-9-cyclopropyl-9H-purin-6-amine] | 149% | 60 nM |  |  |  |
| Fc1ccccc1-n1ncc2c(NCCC3=CCCCC3)ncnc21 [Compound 4] | 105% | 120 nM |  |  |  |
| C1=C(CCNc2ncnc3[nH]ccc23)CCCC1 [Compound 7] | 150% | 160 nM |  |  |  |
| C1=C(CCNc2cc(N3CCCC3)ncn2)CCCC1 [Compound 3] | 138% | 100 nM |  |  |  |
| CC1(CNc2ncnc3c2ncn3C2CC2)CCCCC1 [Compound 39] | 77% | 3600 nM |  |  |  |
